Laboratory results from patent publication US20230000795A1, “LIPID CRYSTALLINE COMPOSITIONS WITH ENHANCED STABILITY FOR TOPICAL DELIVERY OF ACTIVE AGENT COMBINATIONS” (Ankh Life Sciences Limited, priority 2021, published 2023).
Converted amounts (≈) assume the structure as drawn. “And” between values parts separate entries of the source, which are not always exact repeats. Equal entries are not always repeated. Where two headings read alike, the source gives them in different places.

Experiments:
[1] = system: actinic keratosis cell line HaCaT; assay: Growth inhibition of EGF-stimulated HaCaT cells (Cell Titer Glo); format: cell-based; settings: for IC50: Homo sapiens
Description: To investigate the mechanisms by which these pathways are affected, GZ17-6.02 was administered to the actinic keratosis cell line HT297.T in vitro and changes in signalling within various pathways were measured 6 hours post administration with cell death measured 24 hours post administration. […] 5-Fluorouracil was tested at a concentration of 50 uM.
Materials and Methods: A Cell Titer Glo assay was used to determine the sensitivity of EGF-stimulated HaCaT cells to GZ21T. Annexin-V assay was utilized to assess the pro-apoptotic effects of GZ21T on HaCaT cells, and the mechanism was clarified by western blot. AK lesions were induced in Female SKH-1 mice by exposing them to UVB radiation (500 J/m2) five times weekly for ten weeks. Mice were subsequently treated with 0.25 grams topical GZ21T or control cream five days per week. At the studies endpoint, lesional samples were collected from control and GZ21T treated mice and were subjected to RNA-sequencing and reverse phase protein arrays (RPPA). Gene set enrichment analysis (GSEA) was performed using the KEGG database as reference to identify the top pathways altered by GZ21T treatment. Gene set variation analysis (GSVA) was used to assess GZ21T's effect on pathways previously implicated in the pathogenesis of AK. Enrichment analysis was also performed on proteins showing decreased expression following GZ21T treatment using Enrichr with the KEGG database as reference.

[2] = Solubility in receptor solution (PBS with 0.1% Brij); format: physicochemical; settings: aqueous with cosolvent or surfactant or cyclodextrin, thermodynamic from solid
Description: Excess of GZ17-6.02 were added to the solvent, which were stirred for 1 hour and incubated at 32° C. for 24 h. Thereafter the sample was centrifuged or filtrated and the solubility determined by HPLC method DM.216.03[4] or DM.217.01 [5]. One sample was prepared and duplicate injections were analysed.

[3] = In vitro permeation test through pig skin, infinite dose (150 mg, 230 mg/cm^2), Bronaugh flow-through cells; settings: for Cumulative amount permeated: after application of 6% GZ17-6.02 cream batch, mean±SD
Description: Epidermal accumulation is significant due to the desired site of drug action on keratinocytes in actinic keratosis.
Three formulations were used in this experiment.
PBS buffer with 2% (w/w) Brij will be used as receptor solution.
The equipment used is Bronaugh diffusion cells. Parameters of the experiment is described in tables below. Analyses were performed according to RP-HPLC assay with additional calibration standard solutions. […] For the amount found in the tissue values both with and without cell 11 and 12 are reported.
After the in vitro experiment was terminated each membrane was washed, dismounted and prepared according to the following procedure: • 1. Wash the membrane six times with 0.5 ml PBS buffer and collect the PBS in the wash fraction tubes. • 2. Dismount the cells and gently clean the membranes with PBS moisture tops. Collect the tops in the wash fraction tubes. • 3. Gently separate […] from dermis by peeling the membrane and collect in a test tube. • 4. Cut out the cell flange (the unexposed skin) with a 10 mm punch and collect the material in a test tube. • 5. Cut the dermis into thin strips with a scalpel and collect the material in a test tube 1.5 ml.
Analysis of receptor solution and extractions from epidermis and dermis were performed by RP-HPLC.
Receptor solution were analyzed without any further treatment.
Tissue samples were treated according to the following procedure: • 1. […] Vortex the sample and sonicate for 30 minutes in cold water (2-8° C. add ice to the bath). • 3. The samples should then be centrifuged at 14000 rpm and transferred to HPLC vial for analysis.

[4] = Solubility of the active ingredients in aqueous GZ17-6.02 solutions; format: physicochemical; settings: aqueous GZ17-6.02 solution
Excerpt: By comparison, in one study, the solubility of the active ingredients in aqueous GZ17-6.02 solutions (not the lipid crystalline formulation) was first analyzed. […]

[5] = IVPT on pig skin, finite dose 10 mg/cm^2, 3% and 6% GZ17-6.02 monoglyceride cream; settings: after 24 h
Description: Wash the membrane six times with 0.5 ml PBS buffer and collect the PBS in the wash fraction tubes. • 2. Dismount the cells and gently clean the membranes with PBS moisture tops. Collect the tops in the wash fraction tubes. • 3. Gently separate […] from dermis by peeling the membrane and collect in a test tube. • 4. Cut out the cell flange (the unexposed skin) with a 10 mm punch and collect the material in a test tube. • 5. […] The samples should then be centrifuged at 14000 rpm and transferred to HPLC vial for analysis.

[6] = same experimental methods (FIG. 6), read-out: IC50
[7] = pig, 24 h, 6 % GZ17-6.02 in cream
[8] = PBS buffer with 0.1% Brij, 32° C., 24 h, read-out: Solubility in receptor solution
[9] = after application of 6% GZ17-6.02 cream

SMILES | IC50 [1, 6] [µM] | solubility at 24 h [2, 8] [µg/mL] | Solubility at 2-8° C. ([4]; pH 4.3) [% w/w] | Solubility at 25° C. ([4]; pH 4.3) [% w/w] | Solubility at 2-8° C. ([4]; pH 7.0) [% w/w] | Solubility at 25° C. ([4]; pH 7.0) [% w/w] | Amount adsorbed into dermis [3, 9] [µg/g] | Amount adsorbed into epidermis [3, 9] [µg/g] | Maximum obtained concentration in the receptor solution ([3]; previous IVPT experiment) [µg/mL] | further results
O=c1[nH]cc(F)c(=O)[nH]1 [5-Fluorouracil, reference compound] | 4.8 |  |  |  |  |  |  |  |  | 
COc1cc(/C=C/C(=O)CC(=O)/C=C/c2ccc(O)c(OC)c2)ccc1O [Curcumin, 1,7-bis(4-hydroxy3-methoxyphenyl)-1,6-heptadiene-3,5-dione] |  |  |  |  |  |  |  |  |  | solubility at 24 h ([2]; 32 °C): 10 µg/mL (≈ 27.1 µM); Maximum obtained concentration in the receptor solution ([3]; pig, 6 % GZ17-6.02 in cream): 0 µg/mL; Amount adsorbed into dermis [3, 7]: 0.40 ± 0.23 µg/g; Amount adsorbed into epidermis [3, 7]: 3.82 ± 1.88 µg/g; IC50 as Monotherapy ([1]; API alone): 0.736 µg/mL (≈ 2 µM); IC50 ([1]; API alone, read-out: IC50 as Monotherapy): 0.774 µg/mL and 2 µM
COc1ccc2c(c1)[nH]c1c(C)nccc12 [Harmine, 7-methoxy-1-methyl-9H-pyrido[3,4-b]indole] |  | 50 (≈ 236 µM) | >1.56 | >1.56 | 0.0014 | 0.0034 | 38.9 ± 24.4 | 585.5 ± 227.8 | 0.13 | IC50 ([1]; read-out: IC50 as Monotherapy): 2.55 µg/mL and 12 µM
COc1ccc(C=O)cc1O [Isovanillin] |  | 3960 ± 30 (≈ 26000 µM) | 0.27 | 0.57 | 0.18 | 0.28 | 29.4 ± 19.3 | 181.2 ± 118.3 | 18 | Applied dose permeated the skin [5]: about 2%; Cumulative amount permeated ([3]; 2 h): 35.0 ± 20.7 μg/cm^2; Cumulative amount permeated ([3]; 4 h): 103.4 ± 47.6 μg/cm^2; Cumulative amount permeated ([3]; 6 h): 169.3 ± 66.1 μg/cm^2; Cumulative amount permeated ([3]; 8 h): 209.5 ± 74.4 μg/cm^2; Cumulative amount permeated ([3]; 24 h): 208 μg/cm^2 and 207.9 ± 95.2 μg/cm^2; Applied dose permeated when deviation from the linear regime (depletion) occurs ([3]; after 6-8 hours): about 1.5%; Systemic adsorption ([3]; extrapolated from in vitro 24 h permeation to a treated area of 25 cm^2): 5.2 mg
O=C(O)Cc1ccccc1Nc1c(Cl)cccc1Cl [diclofenac, reference compound] | 602 |  |  |  |  |  |  |  |  | 
